From patent US8258114B2, “Modulation of glucose-6-phosphatase translocase expression” (Isis Pharmaceuticals, Inc., priority 2004, dated 2012)
Oligonucleotides are written 5' to 3', each unit as a sugar letter and its base; * is a phosphorothioate linkage, no mark a phosphodiester; rarer units and linkages stand in square brackets, end groups in braces. Plain capitals give the bases only. e = 2'-O-(2-methoxyethyl) (MOE); [5mC] = 5-methylcytosine; d = 2'-deoxy (DNA)

system: mouse glucose-6-phosphatase translocase mRNA; test: Antisense inhibition of mouse glucose-6-phosphatase translocase mRNA in primary mouse hepatocytes, 50 nM (Table 5); type: cell-based; conditions: 50 nM oligonucleotide, mRNA by real-time PCR, normalized with RIBOGREEN
Protocol: Primary mouse hepatocytes were prepared from CD-1 mice purchased from Charles River Labs. Primary mouse hepatocytes were routinely cultured in Hepatocyte Attachment Media supplemented with 10% fetal bovine serum (Invitrogen Life Technologies, Carlsbad, Calif.), 250 nM dexamethasone, and 10 nM bovine insulin (Sigma-Aldrich, St. Louis, Mo.). Cells were seeded into 96-well plates (Falcon-Primaria #353872, BD Biosciences, Bedford, Mass.) at a density of approximately 4,000-6,000 cells/well for use in oligomeric compound transfection experiments.
Quantitation of glucose 6-phosphatase translocase mRNA levels was accomplished by real-time quantitative PCR using the ABI PRISM™ 7600, 7700, or 7900 Sequence Detection System (PE-Applied Biosystems, Foster City, Calif.) according to manufacturer's instructions.
Prior to quantitative PCR analysis, primer-probe sets specific to the target gene being measured were evaluated for their ability to be “multiplexed” with a GAPDH amplification reaction. After isolation the RNA is subjected to sequential reverse transcriptase (RT) reaction and real-time PCR, both of which are performed in the same well. RT and PCR reagents were obtained from Invitrogen Life Technologies (Carlsbad, Calif.). […] The RT reaction was carried out by incubation for 30 minutes at 48° C. Following a 10 minute incubation at 95° C. to activate the PLATINUM® Taq, 40 cycles of a two-step PCR protocol were carried out: 95° C. for 15 seconds (denaturation) followed by 60° C. for 1.5 minutes (annealing/extension).
Gene target quantities obtained by RT, real-time PCR were normalized using either the expression level of GAPDH, a gene whose expression is constant, or by quantifying total RNA using RiboGreen™ (Molecular Probes, Inc. Eugene, Oreg.). GAPDH expression was quantified by RT, real-time PCR, by being run simultaneously with the target, multiplexing, or separately. Total RNA was quantified using RiboGreen™ RNA quantification reagent (Molecular Probes, Inc. Eugene, Oreg.).
A series of oligomeric compounds was designed to target different regions of mouse glucose-6-phosphatase translocase, using published sequences cited in Table 1. All compounds in Table 5 are chimeric oligonucleotides (“gapmers”) 20 nucleotides in length, composed of a central “gap” region consisting of 10 2′-deoxynucleotides, which is flanked on both sides (5′ and 3′) by five-nucleotide “wings”. The wings are composed of 2′-O-(2-methoxyethyl) nucleotides, also known as 2′-MOE nucleotides. The internucleoside (backbone) linkages are phosphorothioate throughout the oligonucleotide. All cytidine residues are 5-methylcytidines. The compounds were analyzed for their effect on gene target mRNA levels by quantitative real-time PCR as described in other examples herein, using the following primer-probe set designed to hybridize to mouse glucose-6-phosphatase translocase: • forward primer: […] (SEQ ID NO: 66) • reverse primer: CCATCCCAGCCATCATGAG (SEQ ID NO: 67) and the PCR probe was: FAM-[…]-TAMRA (SEQ ID NO: 68) where FAM is the fluorescent reporter dye and TAMRA is the quencher dye. Mouse target gene quantities were normalized by quantifying total RNA using RIBOGREEN™.
Data are from experiments in which primary mouse hepatocytes were treated with 50 nM of the antisense oligonucleotides of the present invention. A reduction in expression is expressed as percent inhibition in Table 5. If present, “N.D.” indicates “not determined”. The target regions to which these oligomeric compounds are inhibitory are herein referred to as “validated target segments.”

| Sequence | % Inhib [%] |
| --- | --- |
| AAACGTAAAGGTTCTGTGTT (eA*eA*eA*e[5mC]*eG*dT*dA*dA*dA*dG*dG*dT*dT*d[5mC]*dT*eG*eT*eG*eT*eT; antisense) [ISIS 148990] | 16 |
| AACCAGGATCCAGATCTTGG (eA*eA*e[5mC]*e[5mC]*eA*dG*dG*dA*dT*d[5mC]*d[5mC]*dA*dG*dA*dT*e[5mC]*eT*eT*eG*eG; antisense) [ISIS 148976] | 48 |
| AAGGCCTCCGACCTCGAGGG (eA*eA*eG*eG*e[5mC]*d[5mC]*dT*d[5mC]*d[5mC]*dG*dA*d[5mC]*d[5mC]*dT*d[5mC]*eG*eA*eG*eG*eG; antisense) [ISIS 148967] | 34 |
| AAGTCGGTTTGCCCTCTATA (eA*eA*eG*eT*e[5mC]*dG*dG*dT*dT*dT*dG*d[5mC]*d[5mC]*d[5mC]*dT*e[5mC]*eT*eA*eT*eA; antisense) [ISIS 149007] | 64 |
| AATGCTTCCTACAAGGCCTC (eA*eA*eT*eG*e[5mC]*dT*dT*d[5mC]*d[5mC]*dT*dA*d[5mC]*dA*dA*dG*eG*e[5mC]*e[5mC]*eT*e[5mC]; antisense) [ISIS 148968] | 26 |
| ACAAAGGAGAAGGTTTTGCG (eA*e[5mC]*eA*eA*eA*dG*dG*dA*dG*dA*dA*dG*dG*dT*dT*eT*eT*eG*e[5mC]*eG; antisense) [ISIS 148943] | 47 |
| ACAACTGTGCTGGCTCCACA (eA*e[5mC]*eA*eA*e[5mC]*dT*dG*dT*dG*d[5mC]*dT*dG*dG*d[5mC]*dT*e[5mC]*e[5mC]*eA*e[5mC]*eA; antisense) [ISIS 148982] | 69 |
| ACAGAGACAGCCCTGCCTTC (eA*e[5mC]*eA*eG*eA*dG*dA*d[5mC]*dA*dG*d[5mC]*d[5mC]*d[5mC]*dT*dG*e[5mC]*e[5mC]*eT*eT*e[5mC]; antisense) [ISIS 148970] | 78 |
| ACAGGGCCAGTGTGCTGCGC (eA*e[5mC]*eA*eG*eG*dG*d[5mC]*d[5mC]*dA*dG*dT*dG*dT*dG*d[5mC]*eT*eG*e[5mC]*eG*e[5mC]; antisense) [ISIS 148958] | 50 |
| ACCCACAAGGGCGGACTGCC (eA*e[5mC]*e[5mC]*e[5mC]*eA*d[5mC]*dA*dA*dG*dG*dG*d[5mC]*dG*dG*dA*e[5mC]*eT*eG*e[5mC]*e[5mC]; antisense) [ISIS 148964] | 0 |
| AGACCACAAGGTAGCCAGTG (eA*eG*eA*e[5mC]*e[5mC]*dA*d[5mC]*dA*dA*dG*dG*dT*dA*dG*d[5mC]*e[5mC]*eA*eG*eT*eG; antisense) [ISIS 148961] | 36 |
| AGCCATCATGAGTAGCAATA (eA*eG*e[5mC]*e[5mC]*eA*dT*d[5mC]*dA*dT*dG*dA*dG*dT*dA*dG*e[5mC]*eA*eA*eT*eA; antisense) [ISIS 148973] | 35 |
| AGCCCCTGTGCCAGACCATT (eA*eG*e[5mC]*e[5mC]*e[5mC]*d[5mC]*dT*dG*dT*dG*d[5mC]*d[5mC]*dA*dG*dA*e[5mC]*e[5mC]*eA*eT*eT; antisense) [ISIS 148953] | 58 |
| AGGGTATTCATGAGAGTGGT (eA*eG*eG*eG*eT*dA*dT*dT*d[5mC]*dA*dT*dG*dA*dG*dA*eG*eT*eG*eG*eT; antisense) [ISIS 149006] | 36 |
| AGGTTCTGTGTTAGCCAGAG (eA*eG*eG*eT*eT*d[5mC]*dT*dG*dT*dG*dT*dT*dA*dG*d[5mC]*e[5mC]*eA*eG*eA*eG; antisense) [ISIS 148989] | 58 |
| ATAGGCCGTGGCGAGGGTTC (eA*eT*eA*eG*eG*d[5mC]*d[5mC]*dG*dT*dG*dG*d[5mC]*dG*dA*dG*eG*eG*eT*eT*e[5mC]; antisense) [ISIS 148972] | 36 |
| ATCTTGGGTGAGTCACTGGT (eA*eT*e[5mC]*eT*eT*dG*dG*dG*dT*dG*dA*dG*dT*d[5mC]*dA*e[5mC]*eT*eG*eG*eT; antisense) [ISIS 148975] | 42 |

| Sequence | % Inhib [%] |
| --- | --- |
| ATGAGAGGTTCCACACAAGT (eA*eT*eG*eA*eG*dA*dG*dG*dT*dT*d[5mC]*d[5mC]*dA*d[5mC]*dA*e[5mC]*eA*eA*eG*eT; antisense) [ISIS 148979] | 54 |
| ATGGAGTCTAGAACCAAACG (eA*eT*eG*eG*eA*dG*dT*d[5mC]*dT*dA*dG*dA*dA*d[5mC]*d[5mC]*eA*eA*eA*e[5mC]*eG; antisense) [ISIS 148995] | 56 |
| CACAGAAACGTAAAGGTTCT (e[5mC]*eA*e[5mC]*eA*eG*dA*dA*dA*d[5mC]*dG*dT*dA*dA*dA*dG*eG*eT*eT*e[5mC]*eT; antisense) [ISIS 148991] | 22 |
| CACAGACTCTTGACTGCTCC (e[5mC]*eA*e[5mC]*eA*eG*dA*d[5mC]*dT*d[5mC]*dT*dT*dG*dA*d[5mC]*dT*eG*e[5mC]*eT*e[5mC]*e[5mC]; antisense) [ISIS 148939] | 41 |
| CACGGCTCCCAAAACCAGGA (e[5mC]*eA*e[5mC]*eG*eG*d[5mC]*dT*d[5mC]*d[5mC]*d[5mC]*dA*dA*dA*dA*d[5mC]*e[5mC]*eA*eG*eG*eA; antisense) [ISIS 148977] | 9 |
| CAGAGCGATCTCATCCACCA (e[5mC]*eA*eG*eA*eG*d[5mC]*dG*dA*dT*d[5mC]*dT*d[5mC]*dA*dT*d[5mC]*e[5mC]*eA*e[5mC]*e[5mC]*eA; antisense) [ISIS 148944] | 35 |
| CAGAGGGTCCAGATTTCGGA (e[5mC]*eA*eG*eA*eG*dG*dG*dT*d[5mC]*d[5mC]*dA*dG*dA*dT*dT*eT*e[5mC]*eG*eG*eA; antisense) [ISIS 148959] | −6 |
| CCAAACTGGGATGGCTCAAA (e[5mC]*e[5mC]*eA*eA*eA*d[5mC]*dT*dG*dG*dG*dA*dT*dG*dG*d[5mC]*eT*e[5mC]*eA*eA*eA; antisense) [ISIS 148954] | 48 |
| CCAAACTTCCAGCCAGGTTC (e[5mC]*e[5mC]*eA*eA*eA*d[5mC]*dT*dT*d[5mC]*d[5mC]*dA*dG*d[5mC]*d[5mC]*dA*eG*eG*eT*eT*e[5mC]; antisense) [ISIS 148956] | 27 |
| CCACAGGCCATTAATACTCA (e[5mC]*e[5mC]*eA*e[5mC]*eA*dG*dG*d[5mC]*d[5mC]*dA*dT*dT*dA*dA*dT*eA*e[5mC]*eT*e[5mC]*eA; antisense) [ISIS 148999] | 45 |
| CCAGTGGACAGCACCCAGAG (e[5mC]*e[5mC]*eA*eG*eT*dG*dG*dA*d[5mC]*dA*dG*d[5mC]*dA*d[5mC]*d[5mC]*e[5mC]*eA*eG*eA*eG; antisense) [ISIS 148960] | 28 |
| CCATTAAGAAACCAAGGAGC (e[5mC]*e[5mC]*eA*eT*eT*dA*dA*dG*dA*dA*dA*d[5mC]*d[5mC]*dA*dA*eG*eG*eA*eG*e[5mC]; antisense) [ISIS 148952] | 20 |
| CCGTAGCCTTGGGCTGCCAT (e[5mC]*e[5mC]*eG*eT*eA*dG*d[5mC]*d[5mC]*dT*dT*dG*dG*dG*d[5mC]*dT*eG*e[5mC]*e[5mC]*eA*eT; antisense) [ISIS 148941] | 62 |
| CCGTGTCCTGCCAGTAAGGC (e[5mC]*e[5mC]*eG*eT*eG*dT*d[5mC]*d[5mC]*dT*dG*d[5mC]*d[5mC]*dA*dG*dT*eA*eA*eG*eG*e[5mC]; antisense) [ISIS 148986] | 55 |
| CCTAGGAGAAGAAGAAGGGT (e[5mC]*e[5mC]*eT*eA*eG*dG*dA*dG*dA*dA*dG*dA*dA*dG*dA*eA*eG*eG*eG*eT; antisense) [ISIS 148998] | 21 |
| CGAGGGTTCCCATACAGAGA (e[5mC]*eG*eA*eG*eG*dG*dT*dT*d[5mC]*d[5mC]*d[5mC]*dA*dT*dA*d[5mC]*eA*eG*eA*eG*eA; antisense) [ISIS 148971] | 88 |
